From patent US20030007938A1, “Methods for treating fingernails and toenails” (priority 2001, published 2003)
“And” between values parts separate entries of the source, which are not always exact repeats. Equal entries are not always repeated.

Tested on: index fingernail and cuticle
Experiment: Fingernail growth of the index finger in human volunteers, daily topical treatment for four weeks
Format: in vivo
Experimental: This Example describes the use of a cream prepared with the complexes of peptone with copper (II) to improve nail growth in humans. The copper soy peptone complex (0.3% copper ion and 4% dry weight of peptone) was mixed into an application cream containing 55% (by weight) aloe vera gel, 12% squalane, 12% glycerol stearate, 5% PEG-100, 4% cetyl alcohol and 0.3% retinol. The placebo-treated control nails were treated with a similar cream that contained no copper-peptide complex. For testing experiments, the fingernail growth rates of the index finger were used as a measurement. In the first set of experiments, the copper-peptide complex was applied to the index fingernail and cuticle on the right hand while the left hand nail was untreated and used as a control. In the second set of experiments with different human volunteers, the copper-peptide cream was applied to the index fingernail and cuticle on the left hand while the right hand nail was treated with the placebo cream and used as a control. Nails were treated daily for four weeks. Nail length was measured from the end of the nail bed to the tip of the nail at its center by pushing a small plastic ruler under the nail and firmly against the nail bed. […] The effect of nail growth stimulation was approximately similar if either the right hand treated group or the left hand treated group was used. For testing experiments, the fingernail growth rates of the index finger were used as a measurement. In the experiments, the copper-peptide complex was applied to the index fingernail and cuticle on the right hand while the left hand nail was treated with the placebo cream and used as a control. Nails were treated daily for four weeks. Nail length was measured from the end of the nail bed to the tip of the nail at its center by pushing a small plastic ruler under the nail and firmly against the nail bed. […]

Substance: GHK-Copper (II) [GHK-Copper complex]
- Finger Nail Growth, Right Hand Treated (GHK-Copper (II) cream for four weeks, one value per person, left hand placebo control): 3.1 millimeters in four weeks and 3.5 millimeters in four weeks and 3.7 millimeters in four weeks and 3.4 millimeters in four weeks and 2.9 millimeters in four weeks
- Visual inspection of treated nails versus control hand (four weeks, readily apparent in all cases): appeared to be longer
- Nail growth of treated nails compared with control nails (summary in words of the table, four weeks): better nail growth
